Source: paper PMC9241057, “Ru(II)arene(N^N bpy/phen)-based RAPTA complexes for in vitro anti-tumour activity in human glioblastoma cancer cell lines and in vivo toxicity studies in a zebrafish model” (RSC Advances, 2022)

Experiments:
[1] = system: U87MG; assay: MTT cytotoxicity assay, U87MG; assay type: cell-based, human; settings: 72 h incubation
Method: (§1) The cytotoxic activity of prepared RAPTA complexes (4a–4h) was evaluated by following the standard procedure of the MTT experiment against a series of glioblastoma cells (LN 229, T98, U87MG) in triplicate. In order to accomplish this study, cells were maintained for 72 h with complexes of various concentrations ranging from 2–160 μM, taking cisplatin as a typical positive control.[22]
(§2) RAPTA complexes were dissolved in 1% DMSO, and 0.9% NaCl aqueous solution was used to dissolve cisplatin. A cell suspension was prepared and the number of cells taken was 2.5 × 10^4 mL^−1. The cells were seeded in 96-well plates (200 μL per well) and allowed 80% confluence prior to treatment. The cells were formerly treated with various concentrations (2.5–160 μM) of complex 4a–h while the control group was treated with PBS […]. After the 72 hours of incubation, 0.5% MTT solution was added to each well (20 μL) and further incubated for 4 hours at […]. The formazan crystals that were formed were dissolved in 150 μL DMSO and then the OD was measured by a microplate reader at 540 nm. The % growth inhibition of the control and treated cells were calculated and represented as the growth inhibition percentage as explained below.% growth inhibition = 100 − [(AD × 100)/AB]where AD is the absorbance measured in wells containing the treated and control samples and AB is the measured absorbance for the wells with media and a vehicle that served as the blank. IC50 was calculated using Graphpad Prism (version 6.0) where % cell viability was plotted against drug concentration.

[2] = Conductivity measurement; assay type: physicochemical; settings: 3 x 10^-5 M; for Conductivity (ΛM) 10% aq DMSO: in 10% aq DMSO; for Conductivity (ΛM) DMSO: in DMSO
Text: concentrations gradually.
Origin Lab, version 8.5 was
equation (v) given below: […]
Conductivity measurement 7
complexes with DMSO and aqueous DMSO.
followed the previously described procedure. An orbital shaker was used to shake a known
Different ratios (0.5:1, 1:1,
saturated n-octanol to get the partition coefficient. The absorbance of aliquots of the aqueous

[3] = system: T98; assay: MTT cytotoxicity assay, T98; assay type: cell-based, human; settings: 72 h incubation
Method: as §1, §2

[4] = system: LN229; assay: MTT cytotoxicity assay, LN229; assay type: cell-based, human; settings: 72 h incubation
Method: as §1, §2

[5] = n-Octanol/water partition coefficient, shake-flask method
Method: n-Octanol–water partition coefficient (log P o/w)8
Using the previously reported shake flask approach, the log Po/w of the RAPTA complexes
amount of each complexes in water (pre-saturated with n-octanol). The solution was
centrifuged at 3000 rpm for 10 minutes to allow phase separation. Different ratios (0.5:1, 1:1,
and 2:1) of saturated solutions were shaken for 20 minutes on an orbital shaker with pre-
and octanol layers were measured with a UV-Vis spectrophotometer after adequate dilution.
The concentrations of the complexes in each layer were estimated using the corresponding
molar extinction coefficients, and the partition coefficient (log Po/w) values were computed

[6] = Solubility; settings: DMSO-10% DMEM medium (1:99 v/v, comparable to cell media)
[7] = system: EtBr-bound DNA (Ct-DNA); design: method as in PMID 34612310; settings: from literature ref 20; cited from earlier work
[8] = system: Ct-DNA; settings: comparison value, no reference given; cited from earlier work

Row | Molecule | IC50 [1] [nM] | Conductivity (ΛM) 10% aq DMSO [2] [S cm2 mol-1] | Conductivity (ΛM) DMSO [2] [S cm2 mol-1] | IC50 [3] [nM] | IC50 [4] [nM] | log P (partition coefficient in n-octanol/water) [5] | solubility [6] [mM] | KEtBr, EtBr binding constant [7] [M⁻¹] | KEtBr, DNA binding constant of the typical intercalator [8] [M⁻¹]
1 | C1N2CN3CN1CP(C2)C3.Cc1ccc(C(C)C)cc1.F[P-](F)(F)(F)(F)F.F[P-](F)(F)(F)(F)F.Oc1ccnc2c1ccc1c(O)ccnc12.[Ru+2] [4a, [(η^6-p-Cymene)Ru^II(κ^2-N,N-4,7dihydroxyphenanthroline)(PTA)]·2PF6] | 1690 ± 40 | 74 | 72 | 1950 ± 40 | 1800 ± 40 | – | – | – | –
2 | C1N2CN3CN1CP(C2)C3.CCCCCCCCCc1ccnc(-c2cc(CCCCCCCCC)ccn2)c1.Cc1ccc(C(C)C)cc1.F[P-](F)(F)(F)(F)F.F[P-](F)(F)(F)(F)F.[Ru+2] [4h, [(η^6-p-Cymene)Ru^II(κ^2-N,N-4,4′ dinonylbipyridine)(PTA)]·2PF6] | 1460 ± 30 | 77 | 71 | 1470 ± 30 | 1640 ± 30 | – | – | – | –
3 | C1N2CN3CN1CP(C2)C3.Cc1ccc(C(C)C)cc1.F[P-](F)(F)(F)(F)F.F[P-](F)(F)(F)(F)F.[Ru+2].c1ccc(-c2ccccn2)nc1 [4e, [(η^6-p-Cymene)Ru^II(κ^2-N,N-bipyridine)(PTA)]·2PF6] | 1750 ± 30 | – | – | 1990 ± 40 | 1890 ± 60 | 1.4±0.08 | – | – | –
4 | [(η^6-p-Cymene)Ru^II(κ^2-N,N-4,4′ dimethylbipyridine)(PTA)]·2PF6 [4g] | 1700 ± 30 | 74 | 72 | 1700 ± 30 | 1690 ± 20 | – | – | – | –
5 | C1N2CN3CN1CP(C2)C3.Cc1ccc(C(C)C)cc1.F[P-](F)(F)(F)(F)F.F[P-](F)(F)(F)(F)F.O=C(O)c1ccnc(-c2cc(C(=O)O)ccn2)c1.[Ru+2] [4f, [(η^6-p-Cymene)Ru^II(κ^2-N,N-4,4′ dicarboxylic acid bipyridine)(PTA)]·2PF6] | 1570 ± 20 | 77 | 75 | 2120 ± 30 | 1790 ± 20 | 0.33±0.03 | 17 | – | –
6 | C1N2CN3CN1CP(C2)C3.Cc1ccc(C(C)C)cc1.F[P-](F)(F)(F)(F)F.F[P-](F)(F)(F)(F)F.[Ru+2].c1cnc2c(c1)ccc1cccnc12 [4b, [(η^6-p-Cymene)Ru^II(κ^2-N,N-phenanthroline)(PTA)]·2PF6] | 1910 ± 80 | 78 | 74 | 1910 ± 80 | 2190 ± 160 | – | – | – | –
7 | CC[n+]1c(-c2ccccc2)c2cc(N)ccc2c2ccc(N)cc21 [EtBr, ethidium bromide] | – | – | – | – | – | – | – | 1e+07 | 700000
8 | cis-[Pt(NH3)2Cl2] [Cisplatin, reference compound] | 1370 ± 40 | – | – | 1360 ± 50 | 1400 ± 50 | – | – | – | –
